Data from article PMC6273353, “Design, Synthesis and Evaluation of Novel Tacrine-Ferulic Acid Hybrids as Multifunctional Drug Candidates against Alzheimer’s Disease” (Molecules, 2016).

Key:
[1] = biological target: T1, Aβ (1–42) (Homo sapiens, UniProt P05067); assay: Inhibition of self-induced Aβ (1–42) aggregation, thioflavin T-based fluorometric assay; format: biochemical; conditions: 20 μM compounds, 20 μM Aβ (1–42), 37 °C, 48 h; mean ± SD
T1 construct: An amount of 250 μg Aβ (1–42) was dissolved; purchased Sigma-Aldrich
T1 sequence (P05067 672-713): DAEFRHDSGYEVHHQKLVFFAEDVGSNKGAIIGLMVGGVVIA
Procedure: TFAs 8a–e were tested for their ability to inhibit self-induced Aβ (1–42) aggregation by a thioflavin T-based fluorometric assay, and curcumin and ferulic acid were used as reference compounds.
An amount of 250 μg Aβ (1–42) was dissolved in 1 mL hexafluoroisopropanol (HFIP) and lyophilizated, then dissolved in 25 μL DMSO and 150 μL 50 mM phosphate buffer saline (PBS). For the self-induced assay, 10 μL of Aβ (1–42) was incubated with 10 μL test compounds, both at a final concentration of 20 μM, at 37 °C for 48 h. Then, 40 μL PBS and 100 μL 5 μM thioflavin T (ThT) in 50 mM glycine-NaOH buffer (pH 8.5) was added. […] The percent inhibition of the self-induced aggregation due to the presence of the test compound was calculated by the following expression: 100 − (IFi/IF0 × 100) where IFi and IF0 are the fluorescence intensities with and without test compound, respectively, minus the fluorescence intensities due to the respective blanks.

[2] = biological target: T2, BuChE (Homo sapiens, UniProt P06276); assay: biochemical; conditions: mean ± SD of three independent experiments
T2 construct: purchased Sigma-Aldrich
T2 sequence (P06276 29-602): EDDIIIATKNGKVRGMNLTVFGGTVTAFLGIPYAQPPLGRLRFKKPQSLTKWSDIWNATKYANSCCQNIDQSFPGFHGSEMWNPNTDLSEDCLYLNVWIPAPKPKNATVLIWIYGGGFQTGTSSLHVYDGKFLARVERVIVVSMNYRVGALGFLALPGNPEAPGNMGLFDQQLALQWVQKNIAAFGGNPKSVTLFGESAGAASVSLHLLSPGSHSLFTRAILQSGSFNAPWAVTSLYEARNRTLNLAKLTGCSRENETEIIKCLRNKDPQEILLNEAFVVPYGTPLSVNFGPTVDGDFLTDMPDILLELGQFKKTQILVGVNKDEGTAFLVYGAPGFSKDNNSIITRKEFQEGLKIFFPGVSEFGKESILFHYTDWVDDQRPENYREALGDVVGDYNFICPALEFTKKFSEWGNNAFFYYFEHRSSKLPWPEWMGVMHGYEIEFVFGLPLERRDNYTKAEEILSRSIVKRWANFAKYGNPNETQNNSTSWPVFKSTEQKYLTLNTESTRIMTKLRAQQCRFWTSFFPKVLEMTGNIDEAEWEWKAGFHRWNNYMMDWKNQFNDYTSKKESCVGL
Procedure: (§1) Five different concentrations (10^−4–10^−9 M) of each compound were tested for the inhibitory activity for AChE and BuChE. 10 μL 0.86 U/mL AChE or BuChE, 60 μL 0.1 M phosphate buffer (pH 8.0), and 10 μL test compounds were incubated together at 37 °C for 10 min. An amount of 20 μL 10 mmol/L […] or butylthicoline iodide was added and the solution was incubated at 37 °C for 10 min again. Then 20 μL 5 mmol/L 5,5′-dithiobis-(2-nitrobenzoic acid) (DTNB) and 30 μL 1% sodium dodecyl sulfatesodium salt (SDS) were added. […] Each concentration was analyzed three times, and the IC50 value was calculated from the concentration-inhibition response curve on logarithmic scale.

[3] = biological target: T3, AChE (Homo sapiens, UniProt P22303); assay: biochemical; conditions: for Selectivity Index: Selectivity index = IC50 (BuChE)/IC50 (AChE); for IC50: mean ± SD of three independent experiments
T3 construct: purchased Sigma-Aldrich
T3 sequence (P22303 32-614): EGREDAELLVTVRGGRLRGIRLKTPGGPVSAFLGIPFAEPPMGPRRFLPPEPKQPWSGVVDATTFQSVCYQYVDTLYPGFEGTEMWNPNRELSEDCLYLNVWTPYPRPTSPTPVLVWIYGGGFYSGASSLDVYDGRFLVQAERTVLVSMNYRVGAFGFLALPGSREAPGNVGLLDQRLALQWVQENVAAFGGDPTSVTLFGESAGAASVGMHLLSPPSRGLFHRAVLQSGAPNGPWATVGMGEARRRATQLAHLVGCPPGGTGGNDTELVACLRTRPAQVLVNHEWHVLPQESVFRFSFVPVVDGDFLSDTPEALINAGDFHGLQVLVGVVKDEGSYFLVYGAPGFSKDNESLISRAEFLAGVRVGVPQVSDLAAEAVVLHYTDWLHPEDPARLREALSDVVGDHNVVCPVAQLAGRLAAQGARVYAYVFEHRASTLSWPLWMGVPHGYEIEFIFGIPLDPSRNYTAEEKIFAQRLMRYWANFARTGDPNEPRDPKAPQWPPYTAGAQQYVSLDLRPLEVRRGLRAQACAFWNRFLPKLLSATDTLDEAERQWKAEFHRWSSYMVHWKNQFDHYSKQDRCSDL
Procedure: as §1

[4] = Cu2+-chelating properties assay by UV spectrometry; format: physicochemical; conditions: 8d 40 μM with 10, 20, 40 μM CuCl2 in MeOH, UV 220–400 nm
Procedure: In recent years, there is mounting evidence to support the theory that endogenous copper can be involved as factors or cofactors in the etiopathogenesis of AD, and modulating Cu^2+ in the brain should be to the benefit of AD treatment. The chelating effect of 8d for Cu^2+ was studied by ultra violet (UV) spectrometry with wavelength ranging from 220 to 400 nm.
The complexing studies were determined using a UV spectrophotometer (Beckman Coulter Inc., Brea, CA, USA). Compound 8d (40 µM) in methanol was mixed with 10, 20, 40 µM CuCl2, and then incubated at room temperature for 5 min. The absorption spectra were recorded from 220 nm to 400 nm after incubation.

[5] = tested on: Neuro-2A cells; assay: Protective effect against Aβ-induced neurotoxicity, MTT viability assay; format: cell-based; conditions: 8d 5 or 10 μM with 10 μM Aβ (1–42), 48 h, p < 0.05
Procedure: To investigate the protective effect of 8d against Aβ-induced cytotoxicity, 8d (0, 5 or 10 μM) and 10 μM Aβ (1–42) was directly added into the medium of the Neuro-2A cells. The cells were incubated for 48 h.
Neuro-2A cell were grown in dulbecco’s modified eagle medium (DMEM) plus 1% glutamine and 10% heat-inactivated fetal bovine serum. The assays were performed in 96-well microtiter plates. Cells were treated with or without lyophilizated Aβ (1–42) (10 μM), or different concentrations of 8d (5, 10 μM) combination and incubated for 48 h. Then, 10 µL of MTT (5 mg/mL) was added to each well and incubated for four hours, and then the liquid in the wells was removed. DMSO (150 µL) was added to each well. The absorbance was recorded using a microplate reader at a wavelength of 570 nm.
Neuroprotective effect of 8d were evaluated by cells treated with 8d at the concentration of 0, 5 or 10 μM in the presence of 10 μM Aβ for 48 h; Vehicle group was treated with solvent. The cell viability was assessed using the 3-[4,5-dimethylthylthiazol-2-yl]-2,5 diphenyltetrazoliumbromide (MTT) assay. Data are from three independent experiments and are expressed as the mean ± SD values. ** p < 0.01 compared to vehicle. * p < 0.05, represents significant differences from the control group.

[6] = biological target: T3, AChE; assay: Kinetic analysis of AChE inhibition (Lineweaver-Burk); format: biochemical; conditions: Lineweaver-Burk reciprocal plots, six substrate concentrations
Procedure: Kinetic characterization of AChE was performed as the reported method using six different substrate concentrations (50, 90, 150, 266, 452, and 904 μM). An amount of 60 µL PBS, 20 µL DTNB, 10 µL AChE, and 10 µL inhibitor were mixed together and pre-incubated for 10 min, followed by the addition of 20 μL different substrate and then incubated for 15 min. After that, 30 μL 1% SDS was added. Kinetic characterization of the hydrolysis of acetylthiocholine chloride catalyzed by AChE was done spectrometrically at 415 nm. A parallel control with no inhibitor in the mixture, allowed adjusting activities to be measured.

COc1cc(/C=C/C(=O)CC(=O)/C=C/c2ccc(O)c(OC)c2)ccc1O [curcumin, reference compound]
inhibition at 20 µM [1]: 37.3 ± 1.2%

COC(=O)/C=C/c1ccc(OCCCN2CCN(CC(=O)Nc3c4c(nc5ccccc35)CCCC4)CC2)c(OC)c1 [Compound 8b, Methyl (E)-3-(3-methoxy-4-(3-(4-(2-oxo-2-((1,2,3,4-tetrahydroacridin-9-yl)amino)ethyl)piperazin-1-yl)propoxy)phenyl)acrylate]
inhibition at 20 µM [1]: 19.5 ± 2.7% | IC50 [2]: 120 ± 12.5 nM | Selectivity Index [3]: 1.326 | IC50 [3]: 90.3 ± 7.3 nM

COC(=O)/C=C/c1ccc(OCCCCCN2CCN(CC(=O)Nc3c4c(nc5ccccc35)CCCC4)CC2)c(OC)c1 [Compound 8d, Methyl (E)-3-(3-methoxy-4-((5-(4-(2-oxo-2-((1,2,3,4-tetrahydroacridin-9-yl)amino)ethyl)piperazin-1-yl)pentyl)oxy)phenyl)acrylate]
chelating effect for Cu^2+ (in words) [4]: complex 8d-Cu^2+ had been produced | inhibition at 20 µM [1]: 37.2 ± 0.9% | cell viability compared with Aβ-treated alone group (in words) [5]: significant dose-dependent increase in cell viability | IC50 [2]: 107 ± 13.1 nM | Selectivity Index [3]: 1.733 | IC50 [3]: 61.7 ± 5.2 nM | mechanism of AChE inhibition [6]: mixed-type inhibitors

COC(=O)/C=C/c1ccc(OCCCCN2CCN(CC(=O)Nc3c4c(nc5ccccc35)CCCC4)CC2)c(OC)c1 [Compound 8c, Methyl (E)-3-(3-methoxy-4-(4-(4-(2-oxo-2-((1,2,3,4-tetrahydroacridin-9-yl)amino)ethyl)piperazin-1-yl)butoxy)phenyl)acrylate]
inhibition at 20 µM [1]: 18.5 ± 4% | IC50 [2]: 215 ± 33.7 nM | Selectivity Index [3]: 4.087 | IC50 [3]: 52.7 ± 8.2 nM

COc1cc(/C=C/C(=O)O)ccc1O [ferulic acid]
inhibition at 20 µM [1]: 36.5 ± 3.6%

COC(=O)/C=C/c1ccc(OCCCCCCN2CCN(CC(=O)Nc3c4c(nc5ccccc35)CCCC4)CC2)c(OC)c1 [Compound 8e, Methyl (E)-3-(3-methoxy-4-((6-(4-(2-oxo-2-((1,2,3,4-tetrahydroacridin-9-yl)amino)ethyl)piperazin-1-yl)hexyl)oxy)phenyl)acrylate]
inhibition at 20 µM [1]: 35.1 ± 3.2% | IC50 [2]: 196 ± 3.5 nM | Selectivity Index [3]: 1.059 | IC50 [3]: 184 ± 15.2 nM

COC(=O)/C=C/c1ccc(OCCN2CCN(CC(=O)Nc3c4c(nc5ccccc35)CCCC4)CC2)c(OC)c1 [Compound 8a, Methyl (E)-3-(3-methoxy-4-(2-(4-(2-oxo-2-((1,2,3,4-tetrahydroacridin-9-yl)amino)ethyl)piperazin-1-yl)ethoxy)phenyl)acrylate]
inhibition at 20 µM [1]: 26.1 ± 4.5% | IC50 [2]: 203 ± 35.7 nM | Selectivity Index [3]: 0.660 | IC50 [3]: 306 ± 12.4 nM
